Reference: ChEMBL document CHEMBL2321708, “Modulators of the GPR119 Receptor for the Treatment of Metabolic Syndrome” (ACS Med Chem Lett, 2013)
Blank lines part the entries; values can stand above or below the compound they belong to.

Tests used:
Assay type in all cases: functional
[1] = Effect on glucose homeostasis in diabetes model (unknown origin) assessed as release of GIP at 3 mg/kg, […] measured 30 mins before glucose challenge
[2] = Effect on glucose homeostasis in diabetes model (unknown origin) assessed as release of GIP at 3 mg/kg, […] measured 60 mins post glucose challenge
[3] = Effect on glucose homeostasis in diabetes model (unknown origin) assessed as release of GIP at 3 mg/kg, […] measured 40 mins post glucose challenge
unidentified [4] = test: Effect on glucose homeostasis in diabetes model (unknown origin) assessed as release of GIP at 30 mg/kg, po administered intratracheally measured 120 mins post glucose challenge
[5] = Effect on glucose homeostasis in diabetes model (unknown origin) assessed as release of GIP at 3 mg/kg, […] measured 120 mins post glucose challenge
unidentified [6] = test: Effect on glucose homeostasis in diabetes model (unknown origin) assessed as release of GIP at 30 mg/kg, […] measured 60 mins post glucose challenge
unidentified [7] = test: Effect on glucose homeostasis in diabetes model (unknown origin) assessed as release of GIP at 30 mg/kg, […] measured 20 mins post glucose challenge
[8] = Effect on glucose homeostasis in diabetes model (unknown origin) assessed as release of GIP at 3 mg/kg, […] measured 20 mins post glucose challenge
unidentified [9] = test: Effect on glucose homeostasis in diabetes model (unknown origin) assessed as release of GIP at 30 mg/kg, po administered intratracheally measured 30 mins before glucose challenge
unidentified [10] = test: Effect on glucose homeostasis in diabetes model (unknown origin) assessed as release of GIP at 30 mg/kg, […] measured 40 mins post glucose challenge
[11] = target: T1, Glucose-dependent insulinotropic receptor (Homo sapiens, UniProt Q8TDV5); test: Agonist activity at human GPR119 by HTRF cAMP assay
T1 sequence (Q8TDV5 whole entry): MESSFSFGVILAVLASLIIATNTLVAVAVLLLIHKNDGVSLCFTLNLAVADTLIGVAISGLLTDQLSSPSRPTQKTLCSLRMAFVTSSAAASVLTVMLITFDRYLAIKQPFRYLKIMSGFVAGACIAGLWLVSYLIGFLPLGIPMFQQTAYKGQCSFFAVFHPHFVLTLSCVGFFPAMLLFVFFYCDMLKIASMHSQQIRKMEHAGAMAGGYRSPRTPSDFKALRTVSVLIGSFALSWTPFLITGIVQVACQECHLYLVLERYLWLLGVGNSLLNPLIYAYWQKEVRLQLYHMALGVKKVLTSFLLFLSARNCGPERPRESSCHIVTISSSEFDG

Compound: CCc1cnc(N2CCC(CO[C@H]3CC[C@H](c4ccc(S(C)(=O)=O)cc4F)CC3)CC2)nc1
Activity [1]: 88.7% | Activity [2]: 262.8% | Activity [3]: 250.2% | Activity (unidentified [4]): 107.5% | Activity [5]: 163.3% | Activity (unidentified [6]): 193.2% | Activity (unidentified [7]): 163.5% | Activity [8]: 201.3% | Activity (unidentified [9]): 72.2% | Activity (unidentified [10]): 204.2%

EC50 [11]: 15 nM
Compound: CC(C)(F)c1noc(N2CCC(COC3CC=C(c4ccc(S(C)(=O)=O)cc4)CC3)CC2)n1 (stereo not drawn)

EC50 [11]: 707 nM
Compound: CC(C)(C)OC(=O)N1CCC(CO[C@H]2CC[C@H](c3cnc(S(C)(=O)=O)cn3)CC2)CC1

EC50 [11]: 38 nM
Compound: CC(C)c1noc(N2CCC(CO[C@H]3CC[C@H](c4ccc(S(C)(=O)=O)cc4F)CC3)CC2)n1
